From patent US20070185184A1, “Carbazole derivatives” (Serenex, Inc., priority 2005, published 2007)

What was measured:
PC-3 cell proliferation = test: Cell proliferation assay (Cyquant DNA assay); format: cell-based; settings: Homo sapiens; PC-3 cells, 2-5 days incubation, vs DMSO (100%) and 10 μM Actinomycin D (0%); read-out: inhibitory activities against PC-3 cell proliferation (IC50 range)
Method: A panel of cancer cell lines is obtained from the DCTP Tumor Repository, National Cancer Institute (Frederick, Md.) or ATCC (Rockville, Md.). Cell cultures are maintained in Hyclone RPMI 1640 medium (Logan, Utah) supplemented with 10% fetal bovine serum and 20 mM HEPES buffer, final pH 7.2, at 37° C. with a 5% CO2 atmosphere. Cultures are maintained at sub-confluent densities.
For proliferation assays, cells are seeded with the appropriate medium into 96 well plates at 1,000-2,500 cells per well, depending on the cell line, and are incubated overnight. The following day, test compound, DMSO solution (negative control), or Actinomycin D (positive control) is added to the appropriate wells as 10× concentrated stocks prepared in phosphate buffered saline. The cell plates where then incubated for an additional 2-5 days, depending on the cell line, to allow proliferation to occur. To measure cell density, growth medium is removed from the adherent cell lines, and the plates stored at −80° C. Using these assay plates, relative amounts of DNA in each well is determined using the Cyquant DNA assay kit from […] (Eugene, Oreg.) following the manufacturer's directions. Results for each compound treatment are compared to DMSO vehicle control (100%) and 10 μM Actinomycin D treated cells (0%).

[1] = system: cell cycle progression in M-phase; test: Analysis of cell cycle status: M-phase block (phospho-Histone 3 serine 10, ArrayScan); format: cell-based; settings: 5 hours incubation; vs 500 nM vinblastine (100% M-phase block) and DMSO (0%); read-out: M-phase block activities (IC50 range)
Method: Cells are seeded onto 96-well Packard View plates and incubated overnight. Test compounds are added to individual wells the following day at 10× concentrations and the plates returned to the incubator.
For identification of compounds that blocked cell cycle progression in M-phase, cells are incubated with compounds for 5 hours. After incubation, the cell growth media is removed and the cell monolayers are fixed with 3.7% formaldehyde, followed by treatment with 0.1% Triton X-100, and probed with a monoclonal phospho-specific Histone 3 serine 10 antibody. Bound primary antibody is detected with a FITC or TRITC conjugated secondary antibody. The cellular DNA is stained using Hoechst dye. Fixed cells are visualized using an ArrayScan 4.5 HCS plate reader. Cells positive for antibody binding are identified and quantified using the Target Activation Algorithm. IC50 Data from test compounds is generated by comparing test compound activity to the percentage of cells in M-phase detected in 500 nM vinblastine treated cells (100% M-phase block), and the percentage of M-phase cells detected in the DMSO control treated cells (0% M-phase block).

**Q.** `COCCNc1ccc(-n2c3c(c4ccccc42)C(=O)CCC3)c(C(F)(F)F)c1` [Compound 10, 9-[4-(2-methoxy-ethylamino)-2-trifluoromethyl-phenyl]-1,2,3,9-tetrahydro-carbazol-4-one] was tested. Which IC50 (PC-3 cell proliferation) did it give?
**A.** 500 to 5000 nM

**Q.** For `NC(=O)c1ccc(-n2c3c(c4ccccc42)C(=O)CCC3)c(Cl)c1` [Compound 2, 3-Chloro-4-(4-oxo-1,2,3,4-tetrahydro-carbazol-9-yl)benzamide], which IC50 (PC-3 cell proliferation) is on record?
**A.** < 500 nM

**Q.** With `CC(=O)c1cn(-c2ccc(NC(N)=O)cc2Cl)c2ccc(Cl)cc12` [Compound 17, [4-(3-Acetyl-5-chloro-indol-1-yl)-3-chloro-phenyl]-urea] as the compound, how does the IC50 [1] read?
**A.** 500 to 5000 nM

**Q.** Which IC50 (PC-3 cell proliferation) does the source give for `NC(=O)c1ccc(-n2c3c(c4ccccc42)C(=O)NCC3)c(Cl)c1` [Compound 22, 3-Chloro-4-(1-oxo-1,2,3,4-tetrahydro-pyrido[4,3-b]indol-5-yl)-benzamide] here?
**A.** 500 to 5000 nM

**Q.** How did the IC50 [1] turn out when `NC(=O)c1ccc(-n2c3c(c4ccccc42)C(=O)CCC3)c(C(F)(F)F)c1` [Compound 29, 4-(4-Oxo-1,2,3,4-tetrahydro-carbazol-9-yl)-3-trifluoromethyl-benzamide] was run?
**A.** < 500 nM

**Q.** How did the IC50 (PC-3 cell proliferation) turn out when `NC(=S)c1ccc(-n2c3c(c4ccccc42)C(=O)CCC3)c(Br)c1` [Compound 5, 3-Bromo-4-(4-oxo-1,2,3,4-tetrahydro-carbazol-9-yl)thiobenzamide] was run?
**A.** < 500 nM

**Q.** How did the IC50 [1] turn out when `COCCNc1cc(-n2cc(C(C)=O)c3ccccc32)ccc1C(N)=O` [Compound 35, 4-(3-Acetyl-indol-1-yl)-2-(2-methoxy-ethylamino)-benzamide] was run?
**A.** 500 to 5000 nM

**Q.** With `C=CCNc1ccc(-n2c3c(c4ccccc42)C(=O)CCC3)c(C(F)(F)F)c1` [Compound 38, 9-(4-Allylamino-2-trifluoromethyl-phenyl)-1,2,3,9-tetrahydro-carbazol-4-one] as the compound, how does the IC50 [1] read?
**A.** 500 to 5000 nM

**Q.** For `C/C(=N\O)c1cn(-c2ccc(C(N)=O)cc2Cl)c2ccccc12` [Compound 7, 4-(3-(1-hydroxyimino-ethyl)-indol-1-yl)-3-chloro-benzamide], which IC50 (PC-3 cell proliferation) is on record?
**A.** < 500 nM

**Q.** With `CC(=O)c1cn(-c2ccc(N)cc2Cl)c2cc(Cl)ccc12` [Compound 18, 1-[1-(4-Amino-2-chloro-phenyl)-6-chloro-1H-indol-3-yl]-ethanone] as the compound, how does the IC50 [1] read?
**A.** 500 to 5000 nM

**Q.** `NC(=O)c1ccc(-n2c3c(c4ccccc42)/C(=N/O)CCC3)c(Br)c1` [Compound 4, 3-Bromo-4-(4-hydroxyimino-1,2,3,4-tetrahydro-carbazol-9-yl)benzamide] was tested. Which IC50 (PC-3 cell proliferation) did it give?
**A.** 500 to 5000 nM

**Q.** `NC(=O)Nc1ccc(-n2c3c(c4ccccc42)C(=O)CCC3)c(Cl)c1` [Compound 13, 1-(3-chloro-4-(4-oxo-3,4-dihydro-1H-carbazol-9(2H)-yl)phenyl)urea] was tested. Which IC50 (PC-3 cell proliferation) did it give?
**A.** < 500 nM

**Q.** `COc1cc(-n2cc(C(C)=O)c3ccccc32)ccc1C(N)=O` [Compound 43, 4-(3-Acetyl-indol-1-yl)-2-methoxy-benzamide] was tested. Which IC50 [1] did it give?
**A.** < 500 nM

**Q.** `CC(=O)c1cn(-c2ccc(N)cc2Br)c2ccccc12` [Compound 37, 1-[1-(4-Amino-2-bromo-phenyl)-1H-indol-3-yl]-ethanone] was tested. Which IC50 [1] did it give?
**A.** 5000 to 50000 nM

**Q.** Which IC50 (PC-3 cell proliferation) does the source give for `CC(=O)c1cn(-c2ccc(C(N)=O)cc2Cl)c2ccccc12` [Compound 6, 4-(3-Acetyl-indol-1-yl)-3-chloro-benzamide] here?
**A.** < 500 nM

**Q.** For `NC(=O)Nc1ccc(-n2c3c(c4cc(Cl)ccc42)C(=O)CCC3)c(Cl)c1` [Compound 41, [3-Chloro-4-(6-chloro-4-oxo-1,2,3,4-tetrahydro-carbazol-9-yl)-phenyl]-urea], which IC50 [1] is on record?
**A.** < 500 nM

**Q.** How did the IC50 [1] turn out when `CC(=O)c1cn(-c2ccc(C(N)=O)cc2Cl)c2cc(Cl)ccc12` [Compound 44, 4-(3-Acetyl-6-chloro-indol-1-yl)-3-chloro-benzamide] was run?
**A.** < 500 nM

**Q.** How did the IC50 (PC-3 cell proliferation) turn out when `NC(=O)c1ccc(C(F)(F)F)c(-n2c3c(c4ccccc42)C(=O)CCC3)c1` [Compound 14, 3-(4-Oxo-1,2,3,4-tetrahydro-carbazol-9-yl)-4-trifluoromethyl-benzamide] was run?
**A.** 5000 to 50000 nM

**Q.** How did the IC50 (PC-3 cell proliferation) turn out when `C=CCNc1cc(-n2c3c(c4ccccc42)C(=O)CCC3)ccc1C(N)=O` [Compound 20, 2-Allylamino-4-(4-oxo-1,2,3,4-tetrahydro-carbazol-9-yl)-benzamide] was run?
**A.** 500 to 5000 nM

**Q.** How did the IC50 [1] turn out when `CC(=O)NC(=O)Nc1ccc(-n2c3c(c4ccccc42)C(=O)CCC3)c(Cl)c1` [Compound 40, 1-Acetyl-3-[3-chloro-4-(4-oxo-1,2,3,4-tetrahydro-carbazol-9-yl)-phenyl]-urea] was run?
**A.** < 500 nM
